Assay results: article PMC12362587, “Untargeted Diversity-Oriented Synthesis for the Discovery of New Antitumor Agents: An Integrated Approach of Inverse Virtual Screening, Bioinformatics, and Omics for Target Deconvolution” (Journal of Medicinal Chemistry, 2025)

Legend:
BRD4(BD1) = target: T1, BRD4(BD1) (Homo sapiens, UniProt O60885); assay: BRD4 (BD1) Inhibitor Screening Assay Kit (AlphaScreen); assay type: binding; settings: read-out: EC50 or IC50, bromodomain-containing protein 4
T1 construct: purchased BPS Bioscience (printed as 'BSP') 32514

[1] = target: T2, Poly [ADP-ribose] polymerase 1 (Homo sapiens, UniProt P09874); assay: PARP1 Colorimetric Assay Kit (BPS Bioscience); assay type: biochemical; settings: top concentration 30 μM; read-out: EC50 or IC50, Poly [ADP-ribose] polymerase 1
T2 construct: purchased BPS Bioscience
Description: The assay was performed in a volume of 50 μL in 96-well transparent plates. The PARP1 assay kit (BPS Bioscience, USA) was performed by first coating the 96-well plate with histone proteins, then left at 4 °C overnight. Next, Poly [ADP-ribose] polymerase 1 (PARP1) enzyme (final concentration, 0.33 ng per reaction), a mixture of biotinylated NAD^+ (PARP substrate) and compounds were incubated for 1 h at room temperature. The compounds were added at different concentrations in the reaction buffer, starting from a final concentration of 30 μM. Buffer with the same amount of DMSO (1%) was used as a negative control. After incubation, the plate was treated with streptavidin-HRP followed by the addition of the colorimetric HRP substrate generating a colored solution. The generated signal was read at an absorbance of 450 nm using a microplate reader with UV/vis spectrophotometer (Multiskan Go, Thermo Fisher Scientific, Waltham, MA, USA). Experiments were performed in triplicate. IC50 values were calculated with GraphPad Prism 8.0 software by nonlinear dose–response inhibition regression.

rat TRPM8 = target: T3, rat TRPM8 (Rattus norvegicus, UniProt Q8R455); assay: Ca2+-imaging assay with Fluo-4 AM; assay type: cell-based; settings: inhibition of icilin 0.25 μM, HEK-293 cells overexpressing rat TRPM8, Fluo-4 AM; read-out: EC50 or IC50, transient receptor potential M8
T3 construct: expressed in transfected cells; host or cells: HEK-293
Description: (§1) HEK-293 cells, stably overexpressing recombinant rat TRPM8 or rat TRPA1, were cultured as monolayers in 100 mm Petri dishes using Minimum Essential Media supplemented with 2 mM glutamine, 1% nonessential amino acids, 10% FBS, and maintained at 37 °C under 5% CO2. On the day of the experiment, both nontransfected and transfected HEK-293 cells were loaded for 1 h at room temperature in the dark with the calcium-sensitive fluorescent probe Fluo-4 AM (4 μM, dissolved in dimethyl sulfoxide with 0.02% Pluronic F-127). After loading, cells were washed twice with Tyrode’s solution (145 mM NaCl, 2.5 mM KCl, 1.5 mM CaCl2, 1.2 mM MgCl2, 10 mM D-glucose, 10 mM HEPES, pH 7.4) and transferred to a quartz cuvette (approximately 100,000 cells) in a spectrofluorometer (PerkinElmer LS50B; λEX = 488 nm, λEM = 516 nm) under continuous stirring. Fluorescence was recorded before and after the addition of various concentrations of test compounds. The observed effects were normalized to the response elicited by ionomycin (4 μM). Baseline fluorescence values from nontransfected HEK-293 cells were subtracted from the measurements obtained in transfected cells. The potency of the test compounds was expressed as the concentration required to elicit a half-maximal agonist effect (EC50), measured as half-maximal increases in intracellular calcium concentration ([Ca^2+]-i). The efficacy of TRPA1 agonists was reported as a percentage of the maximal effect induced by allyl isothiocyanate (AITC, 100 μM). Antagonistic or desensitizing effects were assessed by preincubating cells with the test compounds in the quartz cuvette for 5 min before stimulating them with the specific TRP agonist (AITC, 100 μM for TRPA1, or icilin, 0.25 μM for TRPM8). IC50 values were determined as the concentration required to produce a half-maximal inhibition of the agonist effect, with the agonist-induced [Ca^2+]-i response set at 100%. Measurements of [Ca^2+]-i in TRPM8-expressing cells were conducted at 22 °C using a Fluorescence Peltier System (PTP-1, PerkinElmer). All experiments were performed in triplicate or greater. Curve fitting (sigmoidal concentration–response with variable slope) and parameter estimation were conducted using GraphPad Prism 10 (GraphPad Software Inc., San Diego, CA).

rat TRPA1 = target: T4, rat TRPA1 (Rattus norvegicus, UniProt Q6RI86); assay: Ca2+-imaging assay with Fluo-4 AM; assay type: cell-based; settings: agonist effect, HEK-293 cells overexpressing rat TRPA1, Fluo-4 AM; read-out: EC50 or IC50, transient receptor potential A1
T4 construct: expressed in transfected cells; host or cells: HEK-293
Description: as §1

human recombinant CB1R = human recombinant CB1R (Homo sapiens, UniProt P21554); assay: Competition binding assay, displacement of [3H]-CP-55,940; settings: displacement of [3H]-CP-55,940, HEK-293 membranes; read-out: EC50 or IC50, cannabinoid receptor 1
Description: Binding assays at equilibrium were conducted as described in Di Micco et al., 2024. […]. All compounds were evaluated following the manufacturer’s protocol (PerkinElmer distributed by Revvity, Italy). […] The K i values were calculated using the Cheng-Prusoff equation, based on the IC50 values obtained through GraphPad PRISM software (version 10.2.2). The results are expressed as K i (μM), represented as mean ± SEM, and reflect the average of three independent experiments performed in duplicate.

A1 Human Adenosine GPCR = target: T5, A1 Human Adenosine GPCR (Homo sapiens, UniProt P30542); assay: Binding Antagonist Radioligand LeadHunter Assay; settings: Eurofins, read-out: EC50 or IC50, A1 Human Adenosine GPCR, antagonist radioligand
T5 construct: Eurofins (contract assay)
T5 sequence (P30542 1-326): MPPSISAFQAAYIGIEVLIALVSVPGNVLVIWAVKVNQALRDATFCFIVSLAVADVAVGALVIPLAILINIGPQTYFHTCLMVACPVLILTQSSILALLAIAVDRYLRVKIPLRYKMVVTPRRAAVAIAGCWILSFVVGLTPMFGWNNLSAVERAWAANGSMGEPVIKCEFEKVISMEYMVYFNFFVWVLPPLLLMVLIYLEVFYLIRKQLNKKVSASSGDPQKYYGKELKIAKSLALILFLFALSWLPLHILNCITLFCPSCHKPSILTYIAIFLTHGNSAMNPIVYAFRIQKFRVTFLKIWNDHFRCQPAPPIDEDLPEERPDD
From the text: For displacement assays on G-protein coupled receptor 55 (GPR55), Vasopressin V2 receptor (V2R), Adenosine A1 receptor (A1AR), Fibroblast growth factor receptor 1 (FGFR1), Vascular endothelial growth factor receptor 2 (VEGFR2), Platelet-derived growth factor receptor beta (PDGFRB), Vascular endothelial growth factor receptor 1 (VEGFR1), Thromboxane Synthase (TXS) and Phosphodiesterase 10A (PDE10A), we commissioned the Eurofins company which employed its specific experimental methods, accessible at the link: https://www.eurofins.com/.

T4 sequence (Q6RI86 whole entry): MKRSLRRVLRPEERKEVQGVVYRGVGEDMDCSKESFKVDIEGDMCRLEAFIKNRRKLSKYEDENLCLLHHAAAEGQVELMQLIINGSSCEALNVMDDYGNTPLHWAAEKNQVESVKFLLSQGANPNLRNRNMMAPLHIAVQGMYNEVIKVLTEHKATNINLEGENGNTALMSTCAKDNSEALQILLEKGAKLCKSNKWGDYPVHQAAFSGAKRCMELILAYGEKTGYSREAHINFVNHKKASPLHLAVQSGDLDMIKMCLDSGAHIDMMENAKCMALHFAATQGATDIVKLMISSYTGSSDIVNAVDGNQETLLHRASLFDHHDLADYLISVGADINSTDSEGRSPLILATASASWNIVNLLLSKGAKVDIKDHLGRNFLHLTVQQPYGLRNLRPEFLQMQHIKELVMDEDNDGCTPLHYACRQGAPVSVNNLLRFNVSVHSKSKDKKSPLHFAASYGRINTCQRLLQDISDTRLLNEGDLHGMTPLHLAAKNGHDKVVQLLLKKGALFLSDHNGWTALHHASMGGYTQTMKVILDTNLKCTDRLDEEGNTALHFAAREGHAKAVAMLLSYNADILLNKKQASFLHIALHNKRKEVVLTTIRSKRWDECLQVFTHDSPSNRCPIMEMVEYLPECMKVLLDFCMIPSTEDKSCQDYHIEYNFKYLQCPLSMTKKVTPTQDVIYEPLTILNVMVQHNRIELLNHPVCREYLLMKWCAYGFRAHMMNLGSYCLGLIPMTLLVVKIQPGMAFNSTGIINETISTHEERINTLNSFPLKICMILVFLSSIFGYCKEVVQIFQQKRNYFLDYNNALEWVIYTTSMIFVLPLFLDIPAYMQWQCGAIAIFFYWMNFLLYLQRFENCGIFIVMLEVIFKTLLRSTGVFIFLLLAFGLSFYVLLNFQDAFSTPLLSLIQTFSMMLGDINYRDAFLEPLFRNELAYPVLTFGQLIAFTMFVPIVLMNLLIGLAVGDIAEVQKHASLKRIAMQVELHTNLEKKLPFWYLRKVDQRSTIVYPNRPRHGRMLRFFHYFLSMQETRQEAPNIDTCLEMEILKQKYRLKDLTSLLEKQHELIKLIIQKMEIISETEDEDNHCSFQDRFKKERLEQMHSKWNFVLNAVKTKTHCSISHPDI
T2 sequence (P09874 whole entry): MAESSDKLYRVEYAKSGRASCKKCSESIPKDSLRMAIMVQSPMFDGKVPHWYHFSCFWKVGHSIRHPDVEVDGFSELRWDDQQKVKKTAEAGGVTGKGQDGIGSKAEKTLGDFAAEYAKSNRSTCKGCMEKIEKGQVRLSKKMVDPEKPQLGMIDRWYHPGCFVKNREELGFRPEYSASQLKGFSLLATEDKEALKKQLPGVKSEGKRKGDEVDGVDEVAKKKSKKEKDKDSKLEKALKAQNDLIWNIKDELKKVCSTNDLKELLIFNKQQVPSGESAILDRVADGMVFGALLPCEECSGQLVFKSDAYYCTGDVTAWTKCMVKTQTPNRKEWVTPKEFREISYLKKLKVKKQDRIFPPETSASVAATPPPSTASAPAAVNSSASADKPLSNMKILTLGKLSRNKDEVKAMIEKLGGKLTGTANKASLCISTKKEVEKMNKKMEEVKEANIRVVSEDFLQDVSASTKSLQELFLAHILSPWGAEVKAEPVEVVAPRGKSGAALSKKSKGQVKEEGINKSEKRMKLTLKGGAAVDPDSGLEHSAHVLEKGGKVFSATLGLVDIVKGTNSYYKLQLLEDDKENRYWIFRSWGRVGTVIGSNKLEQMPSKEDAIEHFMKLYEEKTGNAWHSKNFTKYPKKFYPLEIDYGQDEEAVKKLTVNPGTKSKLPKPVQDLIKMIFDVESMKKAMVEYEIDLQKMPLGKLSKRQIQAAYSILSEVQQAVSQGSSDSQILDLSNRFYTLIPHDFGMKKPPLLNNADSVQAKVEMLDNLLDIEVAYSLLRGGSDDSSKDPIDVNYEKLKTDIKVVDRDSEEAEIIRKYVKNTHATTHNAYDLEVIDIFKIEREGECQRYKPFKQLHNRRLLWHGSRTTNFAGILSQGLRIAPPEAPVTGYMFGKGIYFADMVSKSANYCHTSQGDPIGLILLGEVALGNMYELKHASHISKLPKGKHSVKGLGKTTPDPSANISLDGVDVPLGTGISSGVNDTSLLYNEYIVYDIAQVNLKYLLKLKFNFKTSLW
T3 sequence (Q8R455 whole entry): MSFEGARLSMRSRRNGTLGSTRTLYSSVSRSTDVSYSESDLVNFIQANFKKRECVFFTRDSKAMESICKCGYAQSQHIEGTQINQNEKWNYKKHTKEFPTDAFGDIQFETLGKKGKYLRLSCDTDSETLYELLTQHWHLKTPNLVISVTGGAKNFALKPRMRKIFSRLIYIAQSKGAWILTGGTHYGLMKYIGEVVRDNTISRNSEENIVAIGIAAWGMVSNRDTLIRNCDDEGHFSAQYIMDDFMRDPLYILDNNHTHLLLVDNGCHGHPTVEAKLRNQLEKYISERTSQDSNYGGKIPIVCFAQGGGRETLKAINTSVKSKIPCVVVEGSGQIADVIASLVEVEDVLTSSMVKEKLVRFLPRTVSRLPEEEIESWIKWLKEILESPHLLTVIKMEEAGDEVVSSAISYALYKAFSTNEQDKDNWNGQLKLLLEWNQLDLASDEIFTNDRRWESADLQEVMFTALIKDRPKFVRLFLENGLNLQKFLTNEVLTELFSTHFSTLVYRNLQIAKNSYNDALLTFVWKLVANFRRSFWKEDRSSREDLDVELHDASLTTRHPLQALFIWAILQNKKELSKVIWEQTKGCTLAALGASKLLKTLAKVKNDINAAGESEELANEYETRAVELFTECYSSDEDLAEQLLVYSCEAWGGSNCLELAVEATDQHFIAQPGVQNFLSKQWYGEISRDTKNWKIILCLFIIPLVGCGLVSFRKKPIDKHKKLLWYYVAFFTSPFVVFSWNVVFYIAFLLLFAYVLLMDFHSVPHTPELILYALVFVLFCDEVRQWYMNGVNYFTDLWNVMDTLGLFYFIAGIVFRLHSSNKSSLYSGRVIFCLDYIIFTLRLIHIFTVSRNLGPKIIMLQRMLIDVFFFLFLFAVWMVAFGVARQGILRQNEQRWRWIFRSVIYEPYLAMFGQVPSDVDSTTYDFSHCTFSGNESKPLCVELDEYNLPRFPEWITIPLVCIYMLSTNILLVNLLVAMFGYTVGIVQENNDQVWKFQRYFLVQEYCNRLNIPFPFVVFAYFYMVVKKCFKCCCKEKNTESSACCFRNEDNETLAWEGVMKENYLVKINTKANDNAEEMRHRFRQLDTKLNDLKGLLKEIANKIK
Sequence of human recombinant CB1R (P21554 whole entry): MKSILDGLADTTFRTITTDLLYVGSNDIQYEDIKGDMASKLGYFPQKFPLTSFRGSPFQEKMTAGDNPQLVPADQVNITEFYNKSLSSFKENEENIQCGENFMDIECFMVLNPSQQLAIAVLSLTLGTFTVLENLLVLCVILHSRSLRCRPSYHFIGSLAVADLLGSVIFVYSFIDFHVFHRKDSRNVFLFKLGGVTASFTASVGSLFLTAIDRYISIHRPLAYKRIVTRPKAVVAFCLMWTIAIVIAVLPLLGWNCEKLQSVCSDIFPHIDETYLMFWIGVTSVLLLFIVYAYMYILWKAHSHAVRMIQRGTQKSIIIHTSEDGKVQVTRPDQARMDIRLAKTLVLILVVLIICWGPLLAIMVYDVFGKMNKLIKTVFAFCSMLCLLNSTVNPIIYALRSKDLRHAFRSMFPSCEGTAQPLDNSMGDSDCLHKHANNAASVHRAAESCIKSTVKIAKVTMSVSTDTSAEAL

IC50 (BRD4(BD1))	IC50 [1]	IC50 (rat TRPM8)	EC50 (rat TRPA1)	IC50 (human recombinant CB1R)	IC50 (A1 Human Adenosine GPCR)	Structure (SMILES)
1190 ± 290 nM	> 30000 nM	> 30000 nM	200 ± 90 nM	> 30000 nM	≥ 30000 nM	CC(C)C[C@H]1C(=O)N(Cc2ccc(C(F)(F)F)cc2)c2ccccc2C(=O)N1Cc1ccc(C(F)(F)F)cc1 [Compound 31, (S)-3-Isobutyl-1,4-bis(4-(trifluoromethyl)benzyl)-3,4-dihydro-1H-benzo[e][1,4]diazepine-2,5-dione]
110 ± 90 nM	> 30000 nM	360 ± 80 nM	2540 ± 1200 nM	> 30000 nM	≥ 30000 nM	CC(C)C[C@@H](C(=O)OCc1ccccc1)N1Cc2ccccc2NC1=O [Compound 63, Benzyl (S)-4-Methyl-2-(2-oxo-1,4-dihydroquinazolin-3(2H)-yl)pentanoate]
